Patent publication US20230295197A1, “STAT5 and STAT6 Degraders and Uses Thereof” (REGENTS OF THE UNIVERSITY OF MICHICAN, priority 2022, published 2023)

Target: T1, STAT6 (Homo sapiens, UniProt P42226)
T1 construct: endogenous in cells; host or cells: MOLM-16, KU-812, SKNO1, MB231, L1236
T1 sequence (P42226 1-847): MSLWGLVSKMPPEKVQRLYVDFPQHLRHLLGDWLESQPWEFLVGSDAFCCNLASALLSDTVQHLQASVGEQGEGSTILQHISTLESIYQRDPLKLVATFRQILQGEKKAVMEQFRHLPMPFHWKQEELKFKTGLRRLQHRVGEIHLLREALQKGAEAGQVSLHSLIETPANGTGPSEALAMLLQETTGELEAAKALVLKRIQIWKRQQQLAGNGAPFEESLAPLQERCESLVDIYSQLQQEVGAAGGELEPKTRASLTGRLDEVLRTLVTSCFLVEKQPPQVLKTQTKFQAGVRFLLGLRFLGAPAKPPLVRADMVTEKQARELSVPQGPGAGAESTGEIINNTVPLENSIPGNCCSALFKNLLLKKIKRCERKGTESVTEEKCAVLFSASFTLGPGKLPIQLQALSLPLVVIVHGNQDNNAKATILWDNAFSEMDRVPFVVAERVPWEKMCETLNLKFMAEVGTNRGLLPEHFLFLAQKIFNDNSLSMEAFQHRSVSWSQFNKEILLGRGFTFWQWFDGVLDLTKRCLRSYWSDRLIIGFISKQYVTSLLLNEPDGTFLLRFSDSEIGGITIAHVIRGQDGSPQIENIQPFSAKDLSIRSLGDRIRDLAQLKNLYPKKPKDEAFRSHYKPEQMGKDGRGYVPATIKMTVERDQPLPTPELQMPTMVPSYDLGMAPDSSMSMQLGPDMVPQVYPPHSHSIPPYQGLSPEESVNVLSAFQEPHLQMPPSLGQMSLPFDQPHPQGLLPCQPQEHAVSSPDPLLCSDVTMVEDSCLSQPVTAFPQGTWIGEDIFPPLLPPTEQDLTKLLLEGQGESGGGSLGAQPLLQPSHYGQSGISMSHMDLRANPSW
Test: Immunoblotting (Western blot) analysis of STAT6 degradation efficiency of degraders in treated cells
Format: cell-based
Settings: L1236 cells, read-out: DC50 S6 L1236
How it was run: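 Degradation read by quantitative near-infrared Western blot: equal protein loads (20-40 μg) from compound-treated versus untreated cells, probed overnight at 4° C. for STAT5 or STAT6 with GAPDH reference. Compound concentrations and exposure times as indicated; cells grown in medium with 10% FBS at 37° C.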

| SMILES | DC50 [µM] |
| --- | --- |
| Cc1ncsc1-c1ccc([C@H](C)NC(=O)[C@@H]2C[C@@H](O)CN2C(=O)[C@@H](NC(=O)CCCCCNC(=O)COc2ccc3c(c2)CN(C(=O)[C@@H](NC(=O)c2cc4cc(C(F)(F)P(=O)(O)O)ccc4s2)C(C)(C)C)[C@H](C(=O)N2CCO[C@H](c4ccccc4)C2)C3)C(C)(C)C)cc1 [Compound 465, (difluoro(2-(((S)-1-((S)-7-(2-((6-(((S)-1-((2S,4R)-4-hydroxy-2-(((S)-1-(4-(4-methylthiazol-5-yl)phenyl)ethyl)carbamoyl)pyrrolidin-1-yl)-3,3-dimethyl-1-oxobutan-2-yl)amino)-6-oxohexyl)amino)-2-oxoethoxy)-3-((R)-2-phenylmorpholine-4-carbonyl)-3,4-dihydroisoquinolin-2(1H)-yl)-3,3-dimethyl-1-oxobutan-2-yl)carbamoyl)benzo[b]thiophen-5-yl)methyl)phosphonic acid] | > 10 |

Same assay, conditions: MOLM-16 cells, class symbols, read-out: DC50 S6 MOLM-16

| SMILES | DC50 [µM] |
| --- | --- |
| Cc1ncsc1-c1ccc([C@H](C)NC(=O)[C@@H]2C[C@@H](O)CN2C(=O)[C@@H](NC(=O)CCCCCCCCNC(=O)COc2ccc3c(c2)CN(C(=O)[C@@H](NC(=O)c2cc4cc(C(F)(F)P(=O)(O)O)ccc4s2)C(C)(C)C)[C@H](C(=O)N2CCC[C@H](c4ccccc4)C2)C3)C(C)(C)C)cc1 [Compound 477, (difluoro(2-(((S)-1-((S)-7-(2-((9-(((S)-1-((2S,4R)-4-hydroxy-2-(((S)-1-(4-(4-methylthiazol-5-yl)phenyl)ethyl)carbamoyl)pyrrolidin-1-yl)-3,3-dimethyl-1-oxobutan-2-yl)amino)-9-oxononyl)amino)-2-oxoethoxy)-3-((R)-3-phenylpiperidine-1-carbonyl)-3,4-dihydroisoquinolin-2(1H)-yl)-3,3-dimethyl-1-oxobutan-2-yl)carbamoyl)benzo[b]thiophen-5-yl)methyl)phosphonic acid] | > 10 |
| CC(C)(C)[C@H](NC(=O)c1cc2cc(C(F)(F)P(=O)(O)O)ccc2s1)C(=O)N1C[C@@H](OCC(=O)NCCC#Cc2ccc3c(c2)C(=O)N(C2CCC(=O)NC2=O)C3=O)C[C@H]1C(=O)N1CCO[C@H](c2ccccc2)C1 (stereo partly drawn) [Compound 482, ((2-(((2S)-1-((2S,4S)-4-(2-((4-(2-(2,6-dioxopiperidin-3-yl)-1,3-dioxoisoindolin-5-yl)but-3-yn-1-yl)amino)-2-oxoethoxy)-2-((R)-2-phenylmorpholine-4-carbonyl)pyrrolidin-1-yl)-3,3-dimethyl-1-oxobutan-2-yl)carbamoyl)benzo[b]thiophen-5-yl)difluoromethyl)phosphonic acid] | > 10 |
| CC(C)(C)[C@H](NC(=O)c1cc2cc(C(F)(F)P(=O)(O)O)ccc2s1)C(=O)N1Cc2cc(OCC(=O)NCCCCCC#Cc3ccc4c(c3)C(=O)N(C3CCC(=O)NC3=O)C4=O)ccc2C[C@H]1C(=O)N1CCC[C@H](c2ccccc2)C1 (stereo partly drawn) [Compound 558, ((2-(((2S)-1-((3S)-7-(2-((7-(2-(2,6-dioxopiperidin-3-yl)-1,3-dioxoisoindolin-5-yl)hept-6-yn-1-yl)amino)-2-oxoethoxy)-3-((R)-3-phenylpiperidine-1-carbonyl)-3,4-dihydroisoquinolin-2(1H)-yl)-3,3-dimethyl-1-oxobutan-2-yl)carbamoyl)benzo[b]thiophen-5-yl)difluoromethyl)phosphonic acid] | > 10 |
| Cc1ncsc1-c1ccc([C@H](C)NC(=O)[C@@H]2C[C@@H](O)CN2C(=O)[C@@H](NC(=O)CCCCCNC(=O)COc2ccc3c(c2)CN(C(=O)[C@@H](NC(=O)c2cc4cc(C(F)(F)P(=O)(O)O)ccc4s2)C(C)(C)C)[C@H](C(=O)N2CCO[C@H](c4ccccc4)C2)C3)C(C)(C)C)cc1 [Compound 465, (difluoro(2-(((S)-1-((S)-7-(2-((6-(((S)-1-((2S,4R)-4-hydroxy-2-(((S)-1-(4-(4-methylthiazol-5-yl)phenyl)ethyl)carbamoyl)pyrrolidin-1-yl)-3,3-dimethyl-1-oxobutan-2-yl)amino)-6-oxohexyl)amino)-2-oxoethoxy)-3-((R)-2-phenylmorpholine-4-carbonyl)-3,4-dihydroisoquinolin-2(1H)-yl)-3,3-dimethyl-1-oxobutan-2-yl)carbamoyl)benzo[b]thiophen-5-yl)methyl)phosphonic acid] | > 10 |
| CC(C)(C)[C@H](NC(=O)c1cc2cc(C(F)(F)P(=O)(O)O)ccc2s1)C(=O)N1C[C@@H](OCC(=O)NCCC#Cc2cccc3c2C(=O)N(C2CCC(=O)NC2=O)C3=O)C[C@H]1C(=O)N1CCO[C@H](c2ccccc2)C1 (stereo partly drawn) [Compound 481, ((2-(((2S)-1-((2S,4S)-4-(2-((4-(2-(2,6-dioxopiperidin-3-yl)-1,3-dioxoisoindolin-4-yl)but-3-yn-1-yl)amino)-2-oxoethoxy)-2-((R)-2-phenylmorpholine-4-carbonyl)pyrrolidin-1-yl)-3,3-dimethyl-1-oxobutan-2-yl)carbamoyl)benzo[b]thiophen-5-yl)difluoromethyl)phosphonic acid] | > 10 |
